Results reported in the NIST ThermoML archive (doi:10.1016/j.fluid.2016.03.009).
Numbers after ± are expanded uncertainties.

Conditions: 101.33 kPa, Liquid, Vibrating tube method

In the case of CCC[n+]1cccc(C)c1.O=S(=O)([N-]S(=O)(=O)C(F)(F)F)C(F)(F)F, the mass density (278.15 K) is reported as 1467.23 ± 80 kg/m3, the mass density (283.15 K) is reported as 1462.43 ± 80 kg/m3 and the mass density (288.15 K) is reported as 1457.62 ± 80 kg/m3. The mass density (293.15 K) was 1452.81 ± 80 kg/m3, the mass density (298.15 K) was 1448.03 ± 80 kg/m3 and the mass density (303.15 K) was 1443.28 ± 80 kg/m3. The mass density (308.15 K) was 1438.54 ± 80 kg/m3, the mass density (313.15 K) was 1433.81 ± 80 kg/m3 and the mass density (318.15 K) was 1429.11 ± 80 kg/m3. The mass density (323.15 K) was 1424.43 ± 80 kg/m3, the mass density (328.15 K) was 1419.79 ± 80 kg/m3 and the mass density (333.15 K) was 1415.16 ± 80 kg/m3. For the same molecule, the mass density (338.15 K) was 1409.8 ± 80 kg/m3, the mass density (343.15 K) was 1405.96 ± 80 kg/m3 and the mass density (348.15 K) was 1401.4 ± 80 kg/m3. The mass density (353.15 K) was 1396.85 ± 80 kg/m3.
In the case of C[n+]1ccn(CCCCS(=O)(=O)O)c1.O=S(=O)([O-])O [1-methyl-3-(4-sulfobutyl)-imidazolium hydrogensulfate], the mass density (283.15 K) is reported as 1450.3 ± 80 kg/m3, the mass density (288.15 K) is reported as 1447.02 ± 80 kg/m3 and the mass density (298.15 K) is reported as 1437.08 ± 80 kg/m3. For the same molecule, the mass density (303.15 K) was 1433.68 ± 80 kg/m3, the mass density (313.15 K) was 1426.76 ± 80 kg/m3 and the mass density (323.15 K) was 1420.51 ± 80 kg/m3. For the same molecule, the mass density (333.15 K) was 1414.28 ± 80 kg/m3, the mass density (343.15 K) was 1408.07 ± 80 kg/m3 and the mass density (353.15 K) was 1401.8 ± 80 kg/m3.
CC(O)C(=O)[O-].CCn1cc[n+](C)c1 [1-ethyl-3-methylimidazolium lactate] gave a mass density (278.15 K) of 1157.45 ± 7.3 kg/m3, a mass density (283.15 K) of 1153.47 ± 7.2 kg/m3 and a mass density (288.15 K) of 1149.77 ± 7.2 kg/m3. For the same molecule, the mass density (293.15 K) was 1146.11 ± 7.1 kg/m3, the mass density (298.15 K) was 1142.46 ± 7.1 kg/m3 and the mass density (303.15 K) was 1138.89 ± 7 kg/m3. It also gave a mass density (308.15 K) of 1135.43 ± 7 kg/m3, a mass density (313.15 K) of 1131.95 ± 7 kg/m3 and a mass density (318.15 K) of 1128.51 ± 6.9 kg/m3. The mass density (323.15 K) was 1125.07 ± 6.9 kg/m3, the mass density (328.15 K) was 1121.67 ± 6.8 kg/m3 and the mass density (333.15 K) was 1118.51 ± 6.8 kg/m3. The mass density (338.15 K) was 1117.98 ± 6.8 kg/m3, the mass density (343.15 K) was 1111.66 ± 6.7 kg/m3 and the mass density (348.15 K) was 1108.39 ± 6.7 kg/m3. For the same molecule, the mass density (353.15 K) was 1105.14 ± 6.6 kg/m3.
Work on C[n+]1ccn(CCCCS(=O)(=O)O)c1.O=S(=O)([N-]S(=O)(=O)C(F)(F)F)C(F)(F)F yielded a mass density (283.15 K) of 1597.92 ± 80 kg/m3, a mass density (288.15 K) of 1592.96 ± 80 kg/m3 and a mass density (293.15 K) of 1587.85 ± 80 kg/m3. The mass density (298.15 K) was 1582.58 ± 80 kg/m3, the mass density (303.15 K) was 1577.87 ± 80 kg/m3 and the mass density (308.15 K) was 1573.18 ± 80 kg/m3. For the same molecule, the mass density (313.15 K) was 1568.52 ± 80 kg/m3, the mass density (318.15 K) was 1563.87 ± 80 kg/m3 and the mass density (323.15 K) was 1559.23 ± 80 kg/m3. It also gave a mass density (328.15 K) of 1554.6 ± 80 kg/m3, a mass density (333.15 K) of 1550.01 ± 80 kg/m3 and a mass density (338.15 K) of 1545.56 ± 80 kg/m3. The mass density (343.15 K) was 1541.12 ± 80 kg/m3, the mass density (348.15 K) was 1536.68 ± 80 kg/m3 and the mass density (353.15 K) was 1532.23 ± 80 kg/m3.
